Data: patent publication US20040166509A1, “Detecting hormonally active compounds” (priority 2002, published 2004)

Experiments:
[1] = system: hepatic mRNA of adult male SHMs; test: SHM cDNA macroarray (30 genes): hepatic gene expression profiles of exposed fish; assay type: in vivo, sheepshead minnow (SHM)
[2] = system: estrogen receptors alpha, beta, and gamma, and Vtg 1 mRNA; test: Real-time PCR of ER and Vtg 1 mRNA in LMB liver; assay type: in vivo, largemouth bass (LMB); conditions: male LMB liver, 48 h after IP 4-NP 50 mg/kg + ICI 182,780 1.0 mg/kg
Excerpt: Experimental Design and Sample Collection: Adult male LMB were purchased from American Sports Fish Hatchery (Montgomery, Ala.) and maintained in fiberglass tanks as previously described (Larkin et al., Comp. Biochem. Physiol. B. Biochem. Mol. Biol. 133:543-557, 2002; Larkin et al., Marine Environ. Res. 54:395-399, 2002; and Larkin et al., Comparative Biochemistry and Physiology 133:543-557, 2002). Array technology as a tool to monitor exposure of fish to xenoestrogens. Marine Environ. Res., 2002; Bowman et al., Mol. Cell. Endocrinol. 196:67-77, 2002). Each fish was injected IP with either 50 mg/kg 4-NP (Fluka, St. Louis, Mo. # 74430), the combination of 50 mg/kg 4-NP and 1.0 mg/kg ICI 182,780 (Tocris Cookson), or vehicle, which consisted of ethanol and DMSO (Sigma, St. Louis, Mo. #5879). Each dose was dissolved in 1 ml of ethanol and then diluted to the appropriate concentration with DMSO. The fish were euthanized by submersion in a water bath containing 50-100 ppm […] 48 hours post injection and sacrificed by a sharp blow to the head followed by cervical transaction. The livers were excised and immediately flash frozen in liquid nitrogen. The frozen tissues were stored at −80° C. until RNA was isolated.
RNA Isolation: Isolation of total RNA from liver tissue was performed with the RNA Stat-60 reagent (Tel-test). Briefly, 30 mg-50 mg of tissue stored in RNA later was homogenized in 0.9 mls STAT 60, choloroform was added, and the mixture was centrifuged at 12,000 g for 15 minutes at 4° C. The extraction process was repeated and the pooled RNA was added to 500 μl isopropanol and allowed to precipitate at −20° C. for at least one hour. Following centrifugation at 12,000 g for 50 minutes, the pellet was washed with 70% ethanol, air dried and resuspended in an appropriate volume (50 μl-120 μl of RNA secure. The samples were treated with RNA secure (Ambion, Austin Tex. #7010) to inactivate contaminating RNases. All isolated RNA was treated with DNase solution (Ambion, Austin, Tex. #1906) following the manufacture's protocol. For all RNA samples, the quantity and quality of total RNA was assessed by spectrophotometric readings at 260 nm and by electrophoresis through a 1% formaldahyde agarose gel stained with ethidium bromide.
Real-Time PCR: Real time PCR was performed using reagents and a 5700 thermocycler purchased from Applied Biosystems (ABI, Foster City, Calif.). The nucleotide sequences of the primers for the ER subtypes and Vtg 1 are as follows: 5′, […] (SEQ ID NO:563) AND 5′[…] (SEQ ID NO:564). Probes and primers for the ER subtypes and Vtg 1 are described in Bowman et al., Ecotoxicology 8:399-416, 1999; and Bowman et al., Mol. Cell Endocrinol. 196:67-77, 2002. Each real time PCR reaction consisted of 0.01-0.2 μg of reverse transcribed total RNA from liver tissue, 1× universal Taqman master mix (ABI, Foster City, Calif.), and primers and probes in a 25 μl reaction. […] Statistical differences between the treatments were determined by one way analysis of variance with Dunnets post-hoc analysis.
Measurement of ER and Vtg 1 mRNA by real-time PCR: Real-time PCR is a sensitive assay that can be used to quantitate expression levels of genes. Using this technology, assays were designed to quantitate the expression of 4 genes, estrogen receptors alpha, beta, and gamma, and Vtg 1 in LMB following exposure to 4-NP and 4-NP/ICI 182,780. […]

[3] = system: hepatic RNA of LMB; test: LMB gene array (132 genes): hepatic gene expression after IP injection; assay type: in vivo, largemouth bass (LMB); conditions: two-fold cutoff vs control; for LMB83 vitellogenin-2 (Vtg 2) expression / LMB87 vitellogenin-1 (Vtg 1) expression / LMB97 choriogenin-3 expression / LMB108-1 choriogenin-2 expression / LMB47-2 (clone 47-2) expression: male LMB liver; for LMB83 vitellogenin-2 (Vtg 2) expression / LMB87 vitellogenin-1 (Vtg 1) expression / LMB97 choriogenin-3 expression / LMB108-1 choriogenin-2 expression: 48 h after single IP dose: E2 2.5 mg/kg, 4-NP 50 mg/kg or p,p′-DDE 100 mg/kg
[4] = Estrogen receptor alpha (clone ID not given)
[5] = clone SHM2-1: vitellogenin alpha (2)
[6] = clone SHM72-3: Coagulation Factor XI
[7] = clone SHM76-2: Alphal-microglobulin/bikunin precursor (AMBP) protein
[8] = male SHM liver, EE2 24, 109 or 832 ng/L, 4 days
[9] = female LMB liver, 48 h after single IP p,p′-DDE 100 mg/kg
[10] = female LMB liver, 48 h after single IP p,p′-DDE 100 mg/kg, listed as p, p′-DDE

In the case of `CC/C(=C(/CC)c1ccc(O)cc1)c1ccc(O)cc1` [DES, diethylstilbestrol], the Regulation [1, 4] is reported as “up-reg E2; EE2,”, the Regulation [1, 5] is reported as “up-reg E2; EE2,” and the Regulation ([1]; clone SHM11: Transferrin) is reported as “dn-reg E2; EE2,”. For the same compound, the Regulation [1, 6] was “up-reg E2; EE2,” and the Regulation [1, 7] was “d-reg E2; EE2,”.
`C#C[C@]1(O)CC[C@H]2[C@@H]3CCc4cc(O)ccc4[C@H]3CC[C@@]21C` [EE2, 17α-ethynyl estradiol] was tested, and the Regulation [1, 4] was “up-reg E2; EE2,”, the Regulation [1, 5] was “up-reg E2; EE2,” and the Regulation ([1]; clone SHM11: Transferrin) was “dn-reg E2; EE2,”. For the same compound, the Regulation [1, 6] was “up-reg E2; EE2,”, the Regulation [1, 7] was “d-reg E2; EE2,” and the “ER α expression, EE2 dose response” value [1, 8] was “increase in a concentration dependent manner”. For the same compound, the “Vtg α expression, EE2 dose response” value [1, 8] was “increase in a concentration dependent manner”, the “Vtg β expression, EE2 dose response” value [1, 8] was “increase in a concentration dependent manner” and the “alpha-1-microglobulin/bikunin precursor protein expression, EE2 dose response” value [1, 8] was “decrease in a dose-dependent manner”. The “beta actin expression, EE2 dose response” value [1, 8] was “decrease in a dose-dependent manner”, the “choriogenin 2 expression, EE2 dose response” value [1, 8] was “increase in a concentration dependent manner” and the “choriogenin 3 expression, EE2 dose response” value [1, 8] was “increase in a concentration dependent manner”. The “clone ND107-B expression, EE2 dose response” value [1, 8] was “increase in a concentration dependent manner” and the “transferrin expression, EE2 dose response” value [1, 8] was “decrease in a dose-dependent manner”.
With `C[C@]12CC[C@@H]3c4ccc(O)cc4C[C@@H](CCCCCCCCC[S+]([O-])CCCC(F)(F)C(F)(F)F)[C@H]3[C@@H]1CC[C@@H]2O` (stereo partly shown) [ICI 182,780] the “repression of 4-NP induction of Vtg 1 mRNA by addition of ICI 182,780” value [2] was “not repressed”.
`COc1ccc(C(c2ccc(OC)cc2)C(Cl)(Cl)Cl)cc1` [MXC, methoxychlor] was tested, and the Regulation [1, 4] was “up-reg E2; EE2,”, the Regulation [1, 5] was “up-reg E2; EE2,” and the Regulation ([1]; clone SHM11: Transferrin) was “dn-reg E2; EE2,”. For the same compound, the Regulation [1, 6] was “up-reg E2; EE2,” and the Regulation [1, 7] was “d-reg E2; EE2,”.
For `ClC(Cl)=C(c1ccc(Cl)cc1)c1ccc(Cl)cc1` [p,p′-DDE], the “LMB5 vitellogenin-2A expression, female” value [3, 9] was “NP; Dn-reg”, the “LMB50-1 (clone 50-1) expression, female” value [3, 9] was “Down reg NP;” and the “LMB53-1 (clone 53-1) expression, female” value [3, 9] was “Down-reg. E2;”. For the same compound, the “LMB71-1 (clone 71-1) expression, female” value [3, 9] was “down-reg”, the “LMB83 vitellogenin-2 expression, female” value [3, 9] was “dn-reg DDE(F)” and the “LMB87 vitellogenin-1 expression, female” value [3, 9] was “dn-reg DDE(F)”. The “LMB94-1 transferrin expression, female” value [3, 9] was “Down-reg”, the “LMB101-1 (clone 101-1) expression, female” value [3, 9] was “Dn” and the “LMB102-1 chemotaxin expression, female” value [3, 9] was “down-reg”. For the same compound, the “LMB107-1 (clone 107-1) expression, female” value [3, 9] was “down-reg”, the “LMB108-1 choriogenin-2 expression, female” value [3, 9] was “DDE(M); Dn-” and the “LMB112-1 cathepsin (Aspartic protease) expression, female” value [3, 9] was “DHT; Dn-DDE (F)”. For the same compound, the “LMB118-1 apolipoprotein precursor (clone 118-1) expression, female” value [3, 9] was “down-reg”, the “LMB120-1 hypothetical protein (clone 120-1) expression, female” value [3, 9] was “donw-reg” and the “LMB128-1 (clone 128-1) expression, female” value [3, 9] was “down-reg”. The “LMB141 vitellogenin-3 expression, female” value [3, 9] was “dn DDE (F)”, the “LMB150 androgen receptor expression, female” value [3, 9] was “Dn-reg DDE(F)” and the “four Vtg's expression, female” value [3, 9] was “down-regulated”. The “genes up-regulated in female fish” value [3, 9] was “no genes were identified as up-regulated”, the “LMB50-1 (clone 50-1) expression, female” value [3, 10] was “down-regulated” and the “LMB53-1 (clone 53-1) expression, female” value [3, 10] was “down-regulated”. The “LMB71-1 (clone 71-1) expression, female” value [3, 10] was “down-regulated”, the “LMB94-1 transferrin expression, female” value [3, 10] was “down-regulated” and the “LMB101-1 (clone 101-1) expression, female” value [3, 10] was “down-regulated”. For the same compound, the “LMB102-1 chemotaxin expression, female” value [3, 10] was “down-regulated”, the “LMB107-1 (clone 107-1) expression, female” value [3, 10] was “down-regulated” and the “LMB108-1 choriogenin-2 expression, female” value [3, 10] was “down-regulated”. For the same compound, the “LMB112-1 cathepsin (Aspartic protease) expression, female” value [3, 10] was “down-regulated”, the “LMB118-1 apolipoprotein precursor (clone 118-1) expression, female” value [3, 10] was “down-regulated” and the “LMB120-1 hypothetical protein (clone 120-1) expression, female” value [3, 10] was “down-regulated”. For the same compound, the “LMB128-1 (clone 128-1) expression, female” value [3, 10] was “down-regulated”, the “LMB150 androgen receptor expression, female” value [3, 10] was “down-regulated” and the “LMB83 vitellogenin-2 (Vtg 2) expression” value [3] was “up-reg E2;”. The “LMB87 vitellogenin-1 (Vtg 1) expression” value [3] was “up-reg E2;”, the “LMB97 choriogenin-3 expression” value [3] was “Up-reg E2;” and the “LMB108-1 choriogenin-2 expression” value [3] was “Up-reg E2; NP;”. For the same compound, the “LMB83 vitellogenin-2 (Vtg 2) expression” value ([3]; listed as p, p′-DDE) was “up-regulated”, the “LMB87 vitellogenin-1 (Vtg 1) expression” value ([3]; listed as p, p′-DDE) was “up-regulated” and the “LMB97 choriogenin-3 expression” value ([3]; listed as p, p′-DDE) was “up-regulated”. The “LMB108-1 choriogenin-2 expression” value ([3]; listed as p, p′-DDE) was “up-regulated”, the “LMB47-2 (clone 47-2) expression” value ([3]; 48 h after single IP p,p′-DDE 100 mg/kg) was “Down-reg” and the “LMB47-2 (clone 47-2) expression” value ([3]; 48 h after single IP p,p′-DDE 100 mg/kg, listed as p, p′-DDE) was “down-regulated”.
